Source: PubChem BioAssay AID179 (DTP/NCI, 2004)
Where “and” joins values, the source holds several entries; their conditions need not be identical. Equal values may be shown once. Calls of active or inactive are those of the source.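 The calls were made as follows: active = compounds giving half or more protection of infected cells from virus-caused growth loss, again on retest; inactive = the rest.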

Test system: CEM cells HIV-1 protection, formazan growth assay
Experiment: NCI AIDS Antiviral Assay
Settings: for IC50: measured here: growth of uninfected CEM cells
In short: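 Human CEM cells, uninfected and HIV-1-infected, received five drug concentrations, and growth was read by soluble formazan assay. Compounds giving at least 50% protection were retested; reproducible 100% protection defined confirmed active.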

| SMILES | EC50 [µM] | IC50 | outcome |
| --- | --- | --- | --- |
| O=C1C2(CCCC13OC3c1ccccc1)OC2c1ccccc1 (stereo not drawn) | > 200 | 115 µM | – |
| N#Cc1c(Cl)cc(C#N)n2c1nc1ccccc12 | > 20 | 0.363 µM | – |
| CCCCNC(C)(C)C(SSSC(C)=O)c1ccco1 (stereo not drawn) | > 200 | 56.2 µM | – |
| CCSc1nnc(CSc2nc(-c3ccccc3)c(-c3ccccc3)[nH]2)n1-c1ccccc1 | > 21.4 | > 21.4 µM | – |
| Cc1c(CNc2ccc(Cl)c(Cl)c2Cl)cnc2nc(N)nc(N)c12 | > 2 | 0.347 µM | – |
| CC(C)N=C(N)CSS(=O)(=O)O | > 200 | > 200 µM | – |
| FC(F)(F)c1cc(NC2=NCCN=C(Nc3cc(C(F)(F)F)cc(C(F)(F)F)c3)SS2)cc(C(F)(F)F)c1 | > 200 | 3.16 µM | – |
| CC(=O)C1=C(O)C2(O)C(=O)c3c(c(C)c4ccc(C)c(O)c4c3O)CC2C(N)C1=O (stereo not drawn) | > 53.7 | 3.55 µM | – |
| CCOCC=NCC(=O)OCC | > 1450 | > 1450 µM | – |
| COc1ccc(-n2c(C)nc3ccc(NC4OCC(O)C(O)C4O)cc3c2=O)cc1 (stereo not drawn) | > 200 | 69.2 µM and 45.7 µM | – |
| O=C(Cc1csc2[n+]1C(=O)/C(=C/c1cccc([N+](=O)[O-])c1)S2)Nc1ccccc1 | – | – | inactive |
| COC(=O)c1ccccc1NC(=O)C(=O)NNC(=O)c1ccncc1 | > 275 | > 275 µM | – |
| CSP(=S)(SC)SC(C)c1ccc(C)cc1 (stereo not drawn) | – | – | inactive |
| CS(=O)(=O)Nc1c(-c2ccccc2)oc2ccccc2c1=O | > 200 | > 200 µM | – |
| O=C(CC(=O)Nc1ccccc1Cl)NNC(Sc1ccccc1)c1cc(N=Nc2ccc(Br)cc2)ccc1O (stereo not drawn) | > 100 | 1.91 µM | – |
| Cc1ccc(-n2cnc3c(N/N=C4\SCC(=O)N4c4ccccc4)ncnc32)cc1 | – | – | inactive |
| CNS(=O)(=O)NNS(=O)(=O)c1ccc2ccccc2c1 | > 575 | 170 µM | – |
| Cc1ccc(S(=O)(=O)N2C3C=CC(C3)[C@@H]2C(Cl)(Cl)Cl)cc1 (stereo partly drawn) | > 200 | 30.9 µM | – |
| N#CC(C#N)=Cc1c[nH]c2ccccc12 | – | – | inactive |
| O=C1[C@H](O)[C@@H]2C(O)O[C@H]3[C@@H]2N1C[C@H]3[Si](c1ccccc1)(c1ccccc1)c1ccccc1 (stereo partly drawn) | > 200 | > 200 µM | – |
| COc1ccc(CN2C(=S)SC(c3ccc(Cl)cc3)N2c2ccc(OC)cc2)cc1 (stereo not drawn) | > 200 | > 200 µM | – |
| O=C1c2cn[nH]c2N=C(Nc2ccccc2)C1N=Cc1ccc([N+](=O)[O-])cc1 (stereo not drawn) | > 200 | 102 µM | – |

| SMILES | EC50 [µM] | IC50 | outcome |
| --- | --- | --- | --- |
| CC[C@@H]1CC2CN3CCc4c([nH]c5cc(OC)c(OC)cc45)C(C(=O)OC)(C2)C13 (stereo partly drawn) | – | – | inactive |
| c1cnc2nc3n(c2c1)CSC3 | > 380 | 355 µM | – |
| COC(=O)CC1C2CCC1C(=O)C2 (stereo not drawn) | > 200 | > 200 µM | – |
| O=C1Nc2ccc(Cl)c(I)c2C1=O | > 61.7 | 35.5 µM | – |
| O=C1c2c(O)cc(O)cc2O[C@H](c2ccc(O)cc2)[C@H]1[C@@H]1C(=O)c2c(O)cc(O)cc2O[C@H]1c1ccc(O)cc1 | > 200 | 8.51 µM | – |
| CC(CCc1nc2ccccc2[nH]1)C1CCC2C3CC[C@@H]4C[C@H](O)CC[C@]4(C)C3C[C@H](O)[C@]12C (stereo partly drawn) | > 50.1 | 4.07 µM | – |
| c1cc2c3c(c1)ncn3C[C@@H]1CCCN1C2 | > 295 | > 295 µM | – |
| O=C(NCCCn1ccnc1[N+](=O)[O-])C(=O)NCCCn1ccnc1[N+](=O)[O-] | > 200 | > 200 µM | – |
| C#CCOCn1cnc2c(N)ncnc21 | > 1230 | 692 µM | – |
| O=CCOCc1cc2c(cc1Br)OCO2 | > 200 | 5.25 µM | – |
| Cc1nc2ccccc2c(=O)n1NC(=O)Cc1ccccc1 | > 200 | > 200 µM | – |
| COc1ccc(NC(=S)Nc2cc(C)cc(C)n2)cc1 | > 200 | > 200 µM | – |
| C/C(=N\NC(=S)NCCCCNC(=S)N/N=C(\C)c1ccccn1)c1ccccc1 | > 200 | 1.62 µM | – |
| S=c1[nH]c2ccc(Br)cc2c(=S)n1-c1ccccc1 | > 195 | 56.2 µM | – |
| CC(C)(C)CC(C)(C)c1cc2c(O)c(c1)Cc1cc(C(C)(C)CC(C)(C)C)cc(c1O)Cc1cc(C(C)(C)CC(C)(C)C)cc(c1O)Cc1cc(C(C)(C)CC(C)(C)C)cc(c1O)Cc1cc(C(C)(C)CC(C)(C)C)cc(c1O)Cc1cc(C(C)(C)CC(C)(C)C)cc(c1O)Cc1cc(C(C)(C)CC(C)(C)C)cc(c1O)Cc1cc(C(C)(C)CC(C)(C)C)cc(c1O)C2 | > 2.04 | > 2.04 µM | – |
| CCOC(=O)CC(=Nc1cc(C)on1)N(CC)CC | > 676 | > 676 µM | – |
| O=C(CSSCC(=O)c1ccccc1)c1ccccc1 | > 89.1 | 11 µM | – |
| Cc1nc2c(nc1C)C(=O)C=CC2=O | > 200 | 11.5 µM | – |
| N#C/C(=C\n1c(=S)[nH]c2ccc([N+](=O)[O-])cc21)C(=O)c1ccc2ccccc2c1 | > 200 | > 200 µM | – |
| O=C1N=C(C=c2ccc(=Cc3[nH]c(=O)[nH]c3O)cc2)C(=O)N1 | 132 | > 200 µM | – |
| CCCCOCC(=O)C1CC[C@@H]2[C@H](CC[C@]3(C)[C@@H](O)CC[C@@H]23)[C@H]1C(=O)O (stereo partly drawn) | > 50.1 | > 50.1 µM | – |
| CC1(C)O[C@@H]([C@@H](O)[C@H](O)C2SCCCS2)[C@@H](CO)O1 | > 200 | > 200 µM | – |

| SMILES | EC50 [µM] | IC50 | outcome |
| --- | --- | --- | --- |
| Nc1nc2c(c(=O)[nH]1)N(C=O)C(CNc1ccc(C(=O)N[C@@H](CCC(=O)O)C(=O)O)cc1)CN2 (stereo partly drawn) | > 200 | > 200 µM | – |
| O=C1COc2ccc(F)cc2N1 | > 380 | > 380 µM | – |
| O=C(Nc1ccc(/C=C/c2ccc(NC(=O)c3ccccc3O)cc2S(=O)(=O)O)c(S(=O)(=O)O)c1)c1ccccc1O | 115 | > 200 µM | – |
| CC(=O)Nc1cc2c(s1)CCC1CC(=O)NN=C21 (stereo not drawn) | > 200 | > 200 µM | – |
| O=C1N(C2CCCCC2)C(=O)N1C1CCCCC1 | 8.32 | 17.8 µM | – |
| CCc1cc2c(oc3cc(C)ccc32)c(=O)n1C | > 200 | 97.7 µM | – |
| O=C(NNC1=NCCCCN1)Nc1ccc(Cl)cc1 | 107 | > 200 µM | – |
| S=P(N1CCOCC1)(N1CC1)N1CC1 | > 200 | 5.25 µM | – |
| COC(=O)C1CCC(=S)N1C(=O)OCc1ccccc1 (stereo not drawn) | > 200 | > 200 µM | – |
| Clc1ccc(-c2nc3ccc(C45CC6CC(CC(C6)C4)C5)cc3[nH]2)cc1 | > 100 | > 100 µM | – |
| CC1(CO)CCCC2(C)C1CCC1CC3C=CC12C1C(=O)OC(=O)C31 (stereo not drawn) | > 200 | 83.2 µM | – |
| Cc1cccc(C)c1NC(=O)CCCC(=O)C1CCC/C1=N\NC(=O)C(=O)NN (stereo not drawn) | > 64.6 | > 64.6 µM | – |
| O=CN/C=C/c1ccccc1 | > 200 | > 200 µM | – |
| C1C2CC3C1C1C[S+]3CC21 (stereo not drawn) | > 380 | > 380 µM | – |
| CCN(CC)CCN(CC)C(=O)COc1cc2c(O)c3c(O)c(C)c4c(c13)C(=O)C(C)(O/C=C/C(OC)C(C)C(OC(C)=O)C(C)C(O)C(C)C(O)C(C)/C=C/C=C(\C)C(=O)N2)O4 (stereo not drawn) | > 200 | 35.5 µM | – |
| Cc1ccc(C23c4ccccc4CCN2C(=O)C3N)cc1 (stereo not drawn) | > 603 | 117 µM | – |
| Cc1cn(COCCCS(=O)c2ccccc2)c(=O)[nH]c1=O (stereo not drawn) | > 200 | > 200 µM | – |
| Nc1nc(Cl)cc(Nc2cc(Cl)cc(Cl)c2)n1 | > 200 | 23.4 µM | – |
| CCOc1c2c(cc3c1C(=O)c1c(OC)cccc1C3=O)C=C(OC)CC2 | > 25.1 | 13.5 µM | – |
| C/C(=N\NC(=S)N1CCN(c2ccccn2)CC1)c1ncccn1 | > 39.8 | 0.0479 µM | – |
| Nc1o[nH]c(=O)c1-c1ccccc1 | > 200 | > 200 µM | – |
| COc1ccc(C(=O)N2CCN(c3ccc4c(c3)OCC(=O)N4)CC2)cc1OC | > 200 | > 200 µM | – |

| SMILES | EC50 [µM] | IC50 | outcome |
| --- | --- | --- | --- |
| CCCNC(=O)C1C(=O)C(=O)N(CCC)C1=O (stereo not drawn) | – | – | inactive |
| CCOC(=O)NC(=O)c1cn(CCN2CCN(C(=O)CNC(=O)CNC(=O)Cn3cc(C(=O)NC(=O)OCC)c(=O)[nH]c3=O)CC2)c(=O)[nH]c1=O | – | – | inactive |
| O=C1OC(CN2CCOCC2)CN1/N=C/c1ccc([N+](=O)[O-])o1 (stereo not drawn) | > 200 | 41.7 µM | – |
| C=CCC(C(=O)OC)C1(C(=O)OC)NCCc2c1[nH]c1ccccc21 (stereo not drawn) | > 324 | 178 µM | – |
| C=CC12CCCCC1CC(C(=O)OC)=C(O)C2 (stereo not drawn) | – | – | inactive |
| O=C(O)/C(=C/c1ccccc1[N+](=O)[O-])c1ccccc1 | > 603 | 550 µM | – |
| CC(=S)N/C=C\c1nc2ccccc2[nH]c1=O | – | – | inactive |
| COCCCCCCCCCCCC(=O)O | > 200 | > 200 µM | – |
| CC1(C)OC(=O)C(c2ccsc2)C(=O)O1 | > 1100 | 589 µM | – |
| Oc1ccc(CCC2CCNc3ccccc32)cc1 (stereo not drawn) | > 5.01 | > 5.01 µM | – |
| O=c1n(CCCN2CCOCC2)nc2n1-c1ccc3ccccc3c1SC2 | > 200 | 33.9 µM | – |
| O=c1ccn(C2OC(CN(O)CCC3C(CO)OC(n4ccc(=O)[nH]c4=O)C3O)C(O)C2O)c(=O)[nH]1 (stereo not drawn) | > 200 | 126 µM | – |
| CC(C)CC(NC(=O)C(COc1ccc([N+](=O)[O-])cc1)Cc1ccccc1)C(=O)Nc1ccccc1 (stereo not drawn) | > 100 | 15.1 µM | – |
| COC(=O)CCS/C=C/C(=O)O | > 1320 | > 1320 µM | – |
| CC(C)(C)[Si](C)(C)OCC1OC(n2ccc(=O)[nH]c2=O)C(O[Si](C)(C)C(C)(C)C)C1C/C=[N+](/[O-])CC1OC(n2ccc(=O)[nH]c2=O)C(O[Si](C)(C)C(C)(C)C)C1O[Si](C)(C)C(C)(C)C (stereo not drawn) | > 100 | > 100 µM | – |
| Oc1ccc(C2Oc3cc(OC4OCC(O)C(O)C4O)cc(O)c3CC2O)cc1O (stereo not drawn) | > 200 | > 200 µM | – |
| C(C[P+](c1ccccc1)(c1ccccc1)c1ccccc1)=C(c1ccccc1)c1ccccc1 | > 200 | 1.05 µM | – |
| C=C1CCC2CC1C(C(=O)c1c[nH]c3ccccc13)=NC2(C)C (stereo not drawn) | > 407 | > 407 µM | – |
| CCOC(=O)NC(Nc1ccc([N+](=O)[O-])cc1)(C(F)(F)F)C(F)(F)F | > 200 | 66.1 µM | – |
| C/C(=C(/C)c1cc[n+](C)cc1)c1cc[n+](C)cc1 | > 11.2 | > 11.2 µM | – |
